Assay results taken from patent EP1013767A1, “Method of screening for agrochemicals” (AMERICAN CYANAMID COMPANY, priority 1998, dated 2000).
Entries after “also recorded” stand apart in the source; their conditions may differ.

Tests used:
[1] = tested on: LOX2:Hv:1; experiment: Northern blot analysis of LOX2:Hv:1 mRNA accumulation in primary leaves of barley; format: in vivo, Barley (Hordeum vulgare L.); conditions: for accumulation of LOX transcript: barley seedlings, powdery mildew susceptible and mlo-resistant cultivar, DCINA soil drench 10 mg active ingredient/L soil volume, BTH 1 mM spray; for kinetics of LOX2:Hv:1 transcript accumulation: 45 µM JM compared with 45 µM SA
Experimental: (§1) Barley (Hordeum vulgare L.) mlo-resistant cultivar Salome as well as the susceptible cultivars Pallas and Manchuria were grown as described for example by Hause et al., J. Plant Physiol. 150, 127-132 (1997). Inoculation with conidia of Blumeria graminis f. sp. hordei race A6 (Wiberg, Hereditas 77, 89-148 (1974)) were performed at a density of 10 conidia per mm^2 with the primary leaf of seven-days-old seedlings at the onset of the light period.
(§2) Segments of seven-days-old primary leaves were freshly harvested and either floated on water, freshly prepared (±) JM, or Na-salicylate.
(§3) DCINA (2,6-dichloroisonicotinic acid), formulated as 25 % active ingredient with a wettable powder (WP) carrier (Métraux et al., Advances in molecular genetics of plant microbe interactions. Vol. 1, Kluwer Academic Publishers, Dordrecht, The Netherlands, pp. 432-439 (1991)), was applied to 7-days-old barley seedlings as a soil drench at a final concentration of 10 mg active ingredient/L soil volume. BTH (benzo[1,2,3]-thiadiazole-7-carbothioic acid S-methyl ester) was applied at a concentration of 1 mM by spraying a formulation with WP in distilled water. Controls were treated with WP.
Total RNA was extracted as described for example by Hause et al., Plant Cell Physiol. 37, 641-649 (1996). Northern blot analysis was performed with digoxigenin-Iabelled cDNAs (DIG-High Prime labelling Kit, Boehringer Mannheim) of barley LOX2:Hv:1 (Vörös et al., loc. cit) and barley PR1b (Bryngelsson et al., Mol. Plant-Microbe Int. 7, 267-275 (1994)).

[2] = tested on: PR1b; experiment: Northern blot analysis of PR1b mRNA accumulation in barley; format: in vivo, Barley (Hordeum vulgare L.); conditions: in response to treatment
Experimental: as §1, §2, §3
Total RNA was extracted as described for example by Hause et al., Plant Cell Physiol. 37, 641-649 (1996). […]

[3] = tested on: PR genes; conditions: wheat; cited from earlier work
[4] = tested on: powdery mildew fungus; conditions: barley, against the powdery mildew fungus; cited from earlier work

| Structure (SMILES) | accumulation of LOX transcript [1] | LOX2:Hv:1 induction, BTH compared with DCINA ([1]; in all experiments) | PR1b mRNA accumulation [2] | activation of PR genes [3] | kinetics of LOX2:Hv:1 transcript accumulation [1] | LOX2:Hv:1 expression ([1]; treatment with SA, cultivar Salome, leaf segments, 24 hours (Fig. 1)) | activation of SAR [4] | sensitivity of LOX2:Hv:1 (dose-response curves) ([1]; JM compared with SA treatment, Fig. 1) |
| --- | --- | --- | --- | --- | --- | --- | --- | --- |
| CSC(=O)c1cccc2nnsc12 [BTH, benzo[1,2,3]-thiadiazole-7-carbothioic acid S-methyl ester] | accumulation of LOX transcript; also recorded: activate LOX | stronger induced | not pathogen related genes like PR1b | strongly activate | – | – | – | – |
| O=C(O)c1ccccc1O [SA, salicylic acid] | – | – | – | strongly activate | No differences | induced | activated SAR | – |
| CCC=CCC1C(=O)CCC1CC(=O)OC (racemic) [JM, jasmonic acid methyl ester] | – | – | not found | – | No differences | – | – | slightly higher sensitivity |
| O=C(O)c1cc(Cl)nc(Cl)c1 [DCINA, 2,6-dichloroisonicotinic acid] | accumulation of LOX transcript | – | – | strongly activate | – | – | – | – |
